The source of these data is patent US20240376119A1, “SPIRO COMPOUND AND USE THEREOF” (CSPC Zhongqi Pharmaceutical Technology (Shijiazhuang) Co., …, priority 2021, published 2024).

One data set deals with hERG channel (Homo sapiens (Human), UniProt Q12809). Put plainly: hERG assay, manual whole-cell patch clamp in CHO-K1 cell line stably expressing the hERG channel. The class given is cell-based. The method, then: This assay included the following aspects: • A manual patch clamp technique was used to record the hERG current in the CHO-K1 cell line stably expressing the hERG channel; • The inhibition rate at each concentration was calculated based on the hERG tail current; • Each compound was tested at 5 concentrations to calculate the IC50 value; • Three cells were tested for each concentration; • One positive control drug was set.
HERG currents were recorded using the whole-cell patch-clamp technique. The cell suspension was added to the cell tank and placed on the upright microscope stage. After the cell adherence, the cells were perfused with extracellular fluid at a flow rate of 1-2 mL/min. The glass microelectrode was drawn in two steps by a micropipette puller, and its resistance value in water was 2-5 MΩ. After establishing the whole-cell recording, the clamp potential was maintained at −80 mV. The hERG tail current was elicited by applying a depolarizing voltage to +60 mV upon the voltage stimulation and then repolarizing to −50 mV. All recordings were made after the current stabilization. Extracellular perfusion administration started from a low concentration, and each concentration lasted for 5-10 minutes until the current was stable, and then proceeded to the next concentration.
The half inhibitory concentration (ICSO) of the test compound was derived from the best fit of the Logistic equation.

Data set [1] relates to human acute myeloid leukemia MV-4-11 cells. As to the kind of experiment: In vitro inhibitory effect on the proliferation of MV-4-11 cells (MTT, 72 h). It is filed as cell-based. To be noted: MV4-11, 72 hours exposure. As for the experimental part:
The human acute myeloid leukemia MV-4-11 cells used in the assay were purchased from Shanghai Institutes for Biological Sciences, Chinese Academy of Sciences. The complete culture medium required for cell culture was IMDM (GIBCO Company), which was supplemented with 10% fetal bovine serum (GIBCO Company). Cells were cultured in a 37° C., 5% CO2 incubator. The reagents used in the assay included dimethyl sulfoxide (purchased from Tianjin Kemiou Chemical Reagent Co., Ltd.), and MTT (Shanghai Topbiochem Co., Ltd., CAS. NO. 298-93-1). The test substance was sealed and stored at 4° C.
Dimethyl sulfoxide was used as the solvent to fully dissolve the test substance and prepare a stock solution with a concentration of 5×10^−2 mol/L. The stock solution was stored at −20° C. A complete culture medium was used as the diluent, and the test substance was diluted to different concentrations in a gradient for later use. 100 µL/well (2×10^4 cells/well) of a suspension of MV-4-11 cells in the complete culture medium was added to a 96-well culture plate. 100 μL/well of the corresponding test substances at different concentrations were added respectively. 8 concentrations were set for each test substance, and 3 duplicate wells were set for each concentration. The plate was cultured in a 37° C., 5% CO2 incubator. 20 μL/well of MTT was added after 72 hours of exposure to the test substances. The plate was cultured for 4 hours in a 37° C., 5% CO2 incubator. The supernatant was discarded, and 150 μL/well of dimethyl sulfoxide was added. The plate contents were oscillated and mixed evenly. The microplate reader was used to detect the OD value at a wavelength of 550 nm. The well only containing the cell suspension without test substance was a control well, and the well only containing the complete culture medium was a blank well. The inhibition rate of the cell growth was calculated with the following formula: • Inhibition rate=(ODcontrol well-ODtest well)/(ODcontrol well-ODblank well)*100%. According to the inhibition rates at each concentration, SPSS software was used to calculate the half inhibitory concentration IC50 value.

The target of the next data set is SHP2 (Homo sapiens (Human), UniProt Q06124). Put plainly: Assay for the inhibitory effect on the SHP2 enzyme (DiFMUP substrate, fluorescence). It is filed as biochemical. To be noted: SHP2 activated with SHP-2 activated peptide; DiFMUP 10 μM; read-out: Enzymatic Effect (IC50 on SHP2). The method, then:
1× Assay buffer was prepared. A compound to be tested was diluted with DMSO solvent to a stock concentration of 10 mM. The compound to be tested was first diluted to an intermediate concentration of 1000 μM and then further diluted in a 3-fold gradient using DMSO. Therefore, the intermediate gradient dilution concentration of the compound to be tested was: 1000 μM, 3-fold dilution, 11 gradients. 100 nL of each concentration of the compound in the 384-well LDV echo plate was transferred to a new 384-well ELISA plate (assay plate) (corning, Cat #4514) by the Echo550 instrument. The final concentration of the compound to be tested was 10 μM, 3-fold dilution, 11 gradients in duplicate after 10 μL of the reaction reagent was added. The final DMSO concentration was 1%. For both negative and positive control wells, 100 nL DMSO would be transferred.
A mixed liquor of 2× working SHP2 reagent (0.4 nM) and 0.5 μM SHP-2 activated peptide (BPS bioscience #79319-2) was prepared with 1× enzyme buffer. After the above-mixed liquor was incubated at 25° C. for 60 minutes, 5 μL of activated SHP2 kinase solution was transferred with a pipettor to the compound wells and the Max control wells (Corning, #4514) of the plate. Then 5 μL of 1× kinase buffer was transferred to the Min control wells. The plate was centrifuged at 1000 rpm for 30 seconds, sealed, and incubated in a 25° C. constant-temperature incubator for 30 minutes. A substrate solution of DiFMUP (#D6567, Invitrogen™) was prepared with 1× kinase buffer, and its concentration should be 2 times as the final concentration of the assay (DiFMUP final concentration: 10 μM). 5 μL of the prepared substrate solution was transferred with an electric pipettor into each well of the ELISA plate to start the reaction. The plate was centrifuged at 1000 rpm for 30 seconds, sealed, and incubated in a 25° C. constant-temperature incubator for 60 minutes. Read the plate at the excitation/emission wavelength of 358/455 nm after the ELISA plate was placed on the Spark machine.
The RLU values were collected from Spark and the inhibition rate was calculated with the RLU values. Inhibition rate=(maximum value-sample RLU)/(maximum value-minimum value)*100. “Minimum value” was referred to the RLU of the enzyme-free control, and “maximum value” was referred to the RLU of the DMSO control. The data were fit by using the XLFit Excel module (version 5.4.0.8) to obtain IC50 values, and the results are shown in Table 1.

The nature of data set [2]: Mouse pharmacokinetic assay (intragastric administration, plasma HPLC-MS/MS). It is filed as in vivo. The note with it: ICR mice. The method, then: ICR mice were intragastrically administered with the compound at 10 mg/kg or 20 mg/kg. At different time points (0.25 h, 0.5 h, 1 h, 2 h, 4 h, 8 h, 24 h) after administration, the mice blood was collected from the orbit. The collected whole blood was anticoagulated with heparin sodium and centrifuged at 3000 g to obtain mouse plasma samples. Methanol was added to precipitate proteins. The drug concentration in the mouse plasma after administration was determined by the HPLC-MS/MS method. A drug concentration-time curve was plotted and the pharmacokinetic parameters were calculated. The pharmacokinetic behavior in mice after the compound administration was described by means of non-compartment model statistical moment parameters.

Data set [3] is described as follows: Mouse tolerance assay (once daily for 7 consecutive days). To be noted: female ICR mice. It is filed as in vivo. The method, then: • Assay animals: ICR mice, female, 5 weeks old • Solvent: 2% DMSO+98% (0.5% MC), treated by sufficient vortex and sonicated to obtain a uniform suspension • Assay method: Female ICR mice were divided into 4 groups according to weight balance, with 5 mice in each group. The administration doses were 50 mg/kg and 200 mg/kg respectively. The compound was administrated once daily for 7 consecutive days.

Setting [4] is: mouse, po, intragastric, 20 mg/kg, plasma.

The structures appear in SMILES notation.

SHP2, sequence (Q06124 whole entry): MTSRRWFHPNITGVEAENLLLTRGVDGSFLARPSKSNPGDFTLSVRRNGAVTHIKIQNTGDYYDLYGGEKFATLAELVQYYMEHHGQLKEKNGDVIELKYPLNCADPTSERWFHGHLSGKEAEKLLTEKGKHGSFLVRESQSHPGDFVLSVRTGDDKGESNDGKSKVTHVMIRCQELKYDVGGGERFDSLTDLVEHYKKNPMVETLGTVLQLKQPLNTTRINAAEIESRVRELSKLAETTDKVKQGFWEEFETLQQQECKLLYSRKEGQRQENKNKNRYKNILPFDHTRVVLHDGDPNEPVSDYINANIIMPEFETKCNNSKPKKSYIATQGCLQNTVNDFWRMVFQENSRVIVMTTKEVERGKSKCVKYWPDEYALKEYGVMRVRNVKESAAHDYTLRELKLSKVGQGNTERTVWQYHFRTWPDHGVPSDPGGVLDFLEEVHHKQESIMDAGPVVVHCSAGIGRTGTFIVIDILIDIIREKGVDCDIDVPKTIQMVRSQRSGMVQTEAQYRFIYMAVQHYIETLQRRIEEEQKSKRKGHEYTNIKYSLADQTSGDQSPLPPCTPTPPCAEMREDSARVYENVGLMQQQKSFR
hERG channel, sequence (Q12809 whole entry, the tested form may be a part): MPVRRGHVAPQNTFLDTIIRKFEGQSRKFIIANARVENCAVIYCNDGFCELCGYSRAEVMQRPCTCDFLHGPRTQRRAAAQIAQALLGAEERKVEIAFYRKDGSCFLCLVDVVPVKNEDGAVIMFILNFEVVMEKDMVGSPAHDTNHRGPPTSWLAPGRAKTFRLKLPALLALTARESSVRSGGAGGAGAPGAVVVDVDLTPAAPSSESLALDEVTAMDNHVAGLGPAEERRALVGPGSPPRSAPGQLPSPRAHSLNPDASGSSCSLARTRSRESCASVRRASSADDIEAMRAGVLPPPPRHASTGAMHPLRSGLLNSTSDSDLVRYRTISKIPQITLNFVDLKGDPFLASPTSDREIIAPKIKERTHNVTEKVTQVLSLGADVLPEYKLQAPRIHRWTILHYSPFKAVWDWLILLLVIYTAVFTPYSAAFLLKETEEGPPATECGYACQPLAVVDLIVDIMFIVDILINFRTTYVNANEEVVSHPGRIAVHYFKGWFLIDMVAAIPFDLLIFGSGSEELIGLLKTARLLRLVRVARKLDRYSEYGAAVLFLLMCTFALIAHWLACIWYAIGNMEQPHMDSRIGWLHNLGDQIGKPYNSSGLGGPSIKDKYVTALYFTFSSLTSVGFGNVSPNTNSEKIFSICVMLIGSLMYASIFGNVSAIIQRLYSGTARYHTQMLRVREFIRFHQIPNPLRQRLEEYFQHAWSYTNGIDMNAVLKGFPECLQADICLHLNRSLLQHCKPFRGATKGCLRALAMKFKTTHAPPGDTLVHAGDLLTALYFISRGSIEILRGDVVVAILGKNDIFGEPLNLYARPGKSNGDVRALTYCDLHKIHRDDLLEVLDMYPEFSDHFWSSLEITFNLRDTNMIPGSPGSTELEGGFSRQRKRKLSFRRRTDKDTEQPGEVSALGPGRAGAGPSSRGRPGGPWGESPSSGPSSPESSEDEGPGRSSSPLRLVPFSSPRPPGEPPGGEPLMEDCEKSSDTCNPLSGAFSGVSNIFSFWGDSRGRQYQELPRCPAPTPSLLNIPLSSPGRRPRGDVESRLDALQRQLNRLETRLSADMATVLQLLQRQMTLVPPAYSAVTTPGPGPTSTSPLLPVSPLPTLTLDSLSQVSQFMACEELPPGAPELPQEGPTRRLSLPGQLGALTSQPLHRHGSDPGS

By IC50 is commonly meant the midpoint of a concentration-inhibition curve. A word on the Cmax: it is the maximum level reached in the sampled fluid or tissue. Usually Tmax stands for the time from dosing to the highest level. On to `CC(=O)c1nc(Sc2cccc(-c3ncco3)c2Cl)c(N)nc1N1CCC2(CC1)Oc1ccccc1[C@H]2N` [Compound 1, (R)-1-(5-amino-3-(3-amino-3H-spiro[benzofuran-2,4′-piperidine]-1′-yl)-6-((2-chloro-3-(oxazole-2-yl)phenyl)sulfanyl)pyrazine-2-yl)ethanone], for which the IC50 at hERG channel (CHO-K1 stable cell line, hERG tail current, 5 concentrations) was above 10000 nM; in data set [1], at most 20 nM; at SHP2, at most 20 nM. Further, the “inhibitory effect on the hERG channel (in words)” value at hERG channel (within the detection concentration range of the assay) is “no obvious inhibitory effect on the hERG channel”. Also, in data set [2] (intragastric administration), the “exposure and absorption in mice (in words)” value is “relatively high exposure in mice and both were well absorbed in vivo”. The molecule further came in with a Cmax in data set [2] (setting [4]) of 2490 ng/mL. Besides, the Tmax in data set [2] (setting [4]) worked out at 4 h. In addition, the AUC(0-t) in data set [2] (mouse, po, intragastric, 20 mg/kg, plasma, read-out: AUC0-24 h) was found to be 16900 ng·h/mL.
With `CC(=O)c1nc(Sc2cccc(-c3ncco3)c2Cl)cnc1N1CCC2(CC1)Oc1ccccc1[C@H]2N` [Compound 8], the IC50 (in data set [1]; at SHP2) was at most 20 nM in each case.
For `COC(=O)c1nc(Sc2cccc(-c3ncco3)c2Cl)c(N)nc1N1CCC2(CC1)Oc1ccccc1[C@H]2N` [Compound 16, (R)-5-amino-3-(3-amino-3H-spiro[benzofuran-2,4′-piperidine]-1′-yl)-6-((2-chloro-3-(oxazole-2-yl)phenyl)sulfanyl)pyrazine-2-carboxylic acid methyl ester], the IC50 (in data set [1]; at SHP2) was at most 20 nM in each case.
Regarding `COC(=O)c1nc(Sc2cccc(-c3ccn(C)n3)c2Cl)cnc1N1CCC2(CC1)Cc1ccccc1[C@H]2N` [Compound 19], in data set [1], the IC50 is at most 20 nM.
Take `Nc1nc(N2CCC3(CC2)Oc2ccccc2[C@H]3N)c(C2COC2)nc1Sc1cccc(-c2ncco2)c1Cl` [Compound 21, (R)-1′-(6-amino-5-((2-chloro-3-(oxazole-2-yl)phenyl)sulfanyl)-3-(oxetane-3-yl)pyrazine-2-yl)-3H-spiro[benzofuran-2,4′-piperidine]-3-amine]: the IC50 on SHP2 is at most 20 nM.
On the same count and under the same terms, then `C=Cc1nc(Sc2cccc(-c3ncco3)c2Cl)c(N)nc1N1CCC2(CC1)Oc1ccccc1[C@H]2N` [Compound 22], with at most 20 nM; and `Nc1nc(N2CCC3(CC2)Oc2ccccc2[C@H]3N)c(F)nc1Sc1cccc(-c2ncco2)c1Cl` [Compound 23, (R)-1′-(6-amino-5-((2-chloro-3-(oxazole-2-yl)phenyl)sulfanyl)-3-fluoropyrazine-2-yl)-3H-spiro[benzofuran-2,4′-piperidine]-3-amine], with at most 20 nM; and `CC(=O)c1nc(Sc2ccnc(-c3ncco3)n2)c(N)nc1N1CCC2(CC1)Oc1ccccc1[C@H]2N` [Compound 24, (R)-1-(5-amino-3-(3-amino-3H-spiro[benzofuran-2,4′-piperidine]-1′-yl)-6-((2-(oxazole-2-yl)pyrimidine-4-yl)sulfanyl)pyrazine-2-yl)ethanone], with at most 20 nM.
In the case of `[2H][C@@]1(N)c2ccccc2OC12CCN(c1nc(N)c(Sc3ccnc(N)n3)nc1C(C)=O)CC2` [Compound 57], the concentration for half-maximal inhibition (IC50) (in data set [1]; at SHP2) was at most 20 nM each time.
For the molecule `COC(=O)c1nc(Sc2ccnc(N)c2Cl)c(N)nc1N1CCC2(CC1)Oc1ccccc1[C@H]2N` [Compound 58], the IC50 at SHP2 was at most 20 nM.
In the case of `[2H][C@@]1(N)c2ccccc2OC12CCN(c1nc(N)c(Sc3ccnc(N)c3Cl)nc1C(=O)OC)CC2` [Compound 59], the IC50 (in data set [1]; on SHP2) was at most 20 nM in each case.
As for `[2H][C@@]1(N)c2ccccc2OC12CCN(c1nc(N)c(Sc3cccc(-c4ncco4)c3Cl)nc1C(C)=O)CC2` [Compound 60], the IC50 at SHP2 is at most 20 nM.
Broadly, the MTD is the largest dose that counted as tolerated. As to `Nc1nc(N2CCC3(CC2)Oc2ccccc2[C@H]3N)cnc1Sc1ccnc(N)c1Cl` [TW-45, reference compound], in data set [3] (200 mg/kg once daily), the “days of administration after which death appeared” value was 4 days and the “death by the 7th day (in words)” value is recorded as “all animals of the positive control had died by the 7th day”. Moreover, the MTD at 7 days in data set [3] (mouse, in vivo, once daily for 7 days, read-out: mouse maximum tolerated dose MTD) is below 200 mg/kg.
